# Source: patent US20250109140A1, “5-[5-(PIPERIDIN-4-YL)THIENO[3,2-C]PYRAZOL-2-YL]INDAZOLE DERIVATIVES AND RELATED COMPOUNDS AS MODULATORS FOR SPLICING NUCLEIC ACIDS AND FOR THE TREATMENT OF PROLIFERATIVE DISEASES” (REMIX THERAPUTICS INC., priority 2022, published 2025)
# Structures can show the parent of a compound that is named as a salt. Where two headings read alike, the source gives them in different places.
# How the values were obtained:
# SMN2 mRNA = experiment: Splicing RT-qPCR gene panel, SMN2 canonical junction (CJ) mRNA; type: cell-based; conditions: Homo sapiens; Table 8; larger gene panel, decrease in CJ mRNA levels
# Outline: (§1)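 Junction-specific RT-qPCR read-out: CJ marks canonical transcript, AJ marks alternative-exon inclusion, each normalized to GAPDH, GUSB or PPIA. Cells (A673 or K562) were dosed for 24 h with compound up to 10 uM final in 11 3-fold steps. RQ from 2^(−ΔΔCt) against DMSO became percentage response.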
# [1] = test system: K562 (human chronic myelogenous leukemia) cells; experiment: Cell viability, Cell Titer Glo 2.0 assay, K562 cells; type: cell-based; conditions: 72 hours
# Experimental: Compounds described herein were screened for toxicity in K562 (human chronic myelogenous leukemia) and SH-SY5Y (human neuroblastoma) cells using a Cell Titer Glo 2.0 assay.
# Cells were plated at 500 cells/well (K562 cells) in 45 μL of IMDM supplemented with 10% FBS in a 384-well opaque plate. Wells containing only medium were used as a blank control. Test compounds (e.g., compounds of Formula (I), (III), (IV), (V), or (VI)) were first serially diluted in DMSO then diluted 1:100 with IMDM+10% FBS. The final concentration of DMSO was 0.1% in each well. The cells were incubated for 72 hours at 37° C. and 5% CO2 before assaying with Cell Titer Glo 2.0 reagent.
# HiBiT-tagged MYB protein = experiment: HiBiT protein abundance assay, MYB (K562 HiBiT knock-in cells); type: cell-based, human; conditions: 24 hours treatment
# Experimental: (§2) Compounds described herein were used to screen for effects on quantitative protein abundance using a HiBit assay system (Promega). Quantitative protein abundance was determined by measuring the protein levels of HiBit-tagged protein targets expressed in cell culture via luminescence using the Nano-Glo HiBiT Lytic Detection System, which uses a split complementation assay format to reconstitute NanoBiT enzyme to generate a luminescent signal. A protein abundance assay was developed such that endogenous protein targets could be modified with the HiBiT peptide tag and their abundance could be assessed after compound treatment. Briefly, K562 cell lines containing a HiBiT-modification were treated with various compounds described herein (e.g., compounds of Formulas (I), or (II)). After treatment for 24 hours, the protein abundance of a specific target was determined by measuring luminescence.
# (§3) Cells were maintained in IMDM with 10% FBS. Before the assay, cells were diluted with […] growth media (IMDM+[…] media) and were seeded in a 384-well plate at a density of 10000 cells/well (for each cell line listed in Table 6). Each compound was prepared as a 10-point 3-fold serial dilution in DMSO with the top dose at a final concentration of […] in the well. Unmodified K562 cells were added at the previously specified density with DMSO to serve as an assay baseline and positive control (PC) and DMSO only with the respective modified cell lines was added to the negative control (NC) columns. Final DMSO concentration was kept at or below 0.25%. Treated cell plates were placed in an incubator at 37° C. with […] for 24 hours. After 24 hours, 25 μL of Complete HiflitLytic reagent was added to each well at room temperature (e.g. one plate requiring 10 mL Lytic Buffer, 100 μL LgBiT Protein, 200 μL Lytic Substrate), shaken for 5 minutes at 600 RPM, then left to sit for 10 minutes for signal to stabilize before reading on a Spark Cyto plate reader (Tecan) with a 500 ms measurement time.
# (§4) To determine compound effects on protein abundance of each target in Table 6, the percent response for each respective cell line was calculated at each compound concentration as follows:
# (§5) For the normalized response at each concentration, a four-parameter logistical regression was fit to the data and the response was interpolated at the 50% value to determine a concentration for protein abundance at 50% (IC50) the untreated control.
# Target C = experiment: HiBiT protein abundance assay, Target C (K562 HiBiT knock-in cells); type: cell-based, human; conditions: 24 hours treatment
# Experimental: • Promega Nano-Glo HiBiT Lytic Detection System (cat #N3030) • Corning 384-well TC-treated microplates (cat #3570) • Synthego Engineered Cells Knock-In Clones
# as §3, §4, §5
# HiBiT-tagged HTT protein = experiment: HiBiT protein abundance assay, HTT (K562 HiBiT knock-in cells); type: cell-based, human; conditions: 24 hours treatment
# Experimental: as §2, §3, §4, §5
# HTT mRNA = experiment: Splicing RT-qPCR assay, HTT canonical (CJ) and alternative (AJ) junction mRNA; type: cell-based; conditions: Homo sapiens; for EC50: AC50 = 50% response in AJ mRNA increase
# Outline: as §1
# MYB mRNA = experiment: Splicing RT-qPCR assay, MYB canonical (CJ) and alternative (AJ) junction mRNA; type: cell-based; conditions: Homo sapiens; for EC50: AC50 = 50% response in AJ mRNA increase
# Outline: as §1
# Target C mRNA = experiment: Splicing RT-qPCR gene panel, Target C canonical junction (CJ) mRNA; type: cell-based; conditions: Homo sapiens; Table 8; larger gene panel, decrease in CJ mRNA levels
# Outline: as §1
# [2] = Table 7, RT-qPCR, A673 or K562 cells, 24 hours treatment
# [3] = Table 7, IC50 = 50% response in CJ mRNA decrease, RT-qPCR, A673 or K562 cells, 24 hours treatment, read-out: HTT CJ
# [4] = Table 8, larger gene panel, decrease in CJ mRNA levels, read-out: HTT CJ IC50
# [5] = Table 7, IC50 = 50% response in CJ mRNA decrease, RT-qPCR, A673 or K562 cells, 24 hours treatment, read-out: MYB CJ
# [6] = Table 8, larger gene panel, decrease in CJ mRNA levels, read-out: MYB CJ IC50
SMILES,IC50 (SMN2 mRNA),IC50 [1],IC50 (HiBiT-tagged MYB protein),IC50 (Target C),IC50 (HiBiT-tagged HTT protein),EC50 (HTT mRNA; [2]),IC50 (HTT mRNA; [3]),IC50 (HTT mRNA; [4]),EC50 (MYB mRNA; [2]),IC50 (MYB mRNA; [5]),IC50 (MYB mRNA; [6]),IC50 (Target C mRNA)
Cc1cn2cc(-n3cc4cc(C5CCNCC5)sc4n3)ncc2n1 [Compound 158],100 to 1000 nM,100 to 1000 nM,100 to 1000 nM,100 to 1000 nM,100 to 1000 nM,100 to 1000 nM,100 to 1000 nM,100 to 1000 nM,100 to 1000 nM,100 to 1000 nM,100 to 1000 nM,100 to 1000 nM
"Cn1cc2cc(-c3cc4cn(C5CCOCC5)nc4s3)cc(F)c2n1 [Compound 161, 7-fluoro-2-methyl-5-[2-(oxan-4-yl)thieno[2,3-c]pyrazol-5-yl]indazole]",> 10000 nM,> 10000 nM,> 10000 nM,> 10000 nM,> 10000 nM,> 10000 nM,> 10000 nM,> 10000 nM,> 10000 nM,> 10000 nM,> 10000 nM,> 10000 nM
"Cc1cn2cc(-n3cc4sc(C5CCNCC5)cc4n3)cc(F)c2n1 [Compound 166, 4-(2-{8-fluoro-2-methylimidazo[1,2-a]pyridin-6-yl}thieno[3,2-c]pyrazol-5-yl)piperidine]",100 to 1000 nM,1000 to 10000 nM,100 to 1000 nM,100 to 1000 nM,100 to 1000 nM,100 to 1000 nM,100 to 1000 nM,100 to 1000 nM,1000 to 10000 nM,1000 to 10000 nM,1000 to 10000 nM,1000 to 10000 nM

# Now from value to molecule:
IC50 (SMN2 mRNA),IC50 [1],IC50 (HiBiT-tagged MYB protein),IC50 (Target C),IC50 (HiBiT-tagged HTT protein),EC50 (HTT mRNA; [2]),IC50 (HTT mRNA; [3]),IC50 (HTT mRNA; [4]),EC50 (MYB mRNA; [2]),IC50 (MYB mRNA; [5]),IC50 (MYB mRNA; [6]),IC50 (Target C mRNA),SMILES
1000 to 10000 nM,1000 to 10000 nM,1000 to 10000 nM,> 10000 nM,1000 to 10000 nM,1000 to 10000 nM,1000 to 10000 nM,1000 to 10000 nM,1000 to 10000 nM,1000 to 10000 nM,1000 to 10000 nM,> 10000 nM,"Cn1cc2cc(-c3cc4cn([C@@H]5CCNC5)nc4s3)cc(F)c2n1 [Compound 160, (R)-5-(7-fluoro-2-methyl-2H-indazol-5-yl)-2-(pyrrolidin-3-yl)-2H-thieno[2,3-c]pyrazole hydrochloride]"
< 100 nM,1000 to 10000 nM,100 to 1000 nM,100 to 1000 nM,< 100 nM,100 to 1000 nM,100 to 1000 nM,100 to 1000 nM,100 to 1000 nM,100 to 1000 nM,100 to 1000 nM,100 to 1000 nM,"Cc1cn2nc(-c3cc4cn(C5CCNCC5)nc4s3)cc(C)c2n1 [Compound 162, 4-(5-{2,8-dimethylimidazo[1,2-b]pyridazin-6-yl}thieno[2,3-c]pyrazol-2-yl)piperidine]"
1000 to 10000 nM,1000 to 10000 nM,1000 to 10000 nM,1000 to 10000 nM,1000 to 10000 nM,1000 to 10000 nM,1000 to 10000 nM,1000 to 10000 nM,1000 to 10000 nM,1000 to 10000 nM,1000 to 10000 nM,1000 to 10000 nM,"Cc1cn2nc(-n3cc4cc(C5CCNCC5)sc4n3)nc2c(C)n1 [Compound 163, 4-(2-{6,8-dimethyl-[1,2,4]triazolo [1,5-a]pyrazin-2-yl}thieno[2,3-c]pyrazol-5-yl)piperidine]"
1000 to 10000 nM,1000 to 10000 nM,1000 to 10000 nM,1000 to 10000 nM,1000 to 10000 nM,1000 to 10000 nM,1000 to 10000 nM,1000 to 10000 nM,1000 to 10000 nM,1000 to 10000 nM,1000 to 10000 nM,1000 to 10000 nM,Cc1cn2nc(-n3cc4cc(C5CCNCC5)sc4n3)cc2c(C)n1 [Compound 164]
< 100 nM,100 to 1000 nM,100 to 1000 nM,100 to 1000 nM,< 100 nM,< 100 nM,< 100 nM,< 100 nM,1000 to 10000 nM,100 to 1000 nM,1000 to 10000 nM,100 to 1000 nM,Cc1cn2cc(-n3cc4cc(C5CCNCC5)sc4n3)cc(Cl)c2n1 [Compound 165]
